Laboratory results: patent US20040072319A1, “Molecules that modulate ubiquintin-dependent proteolysis and methods for identifying same” (priority 2003, published 2004)
One block for each molecule: values may come before it. Peptide text beside a SMILES is read from it.

How the values were obtained:
[1] = target: T1, Cdc4-Skp1 complexes (Saccharomyces cerevisiae, UniProt P07834); experiment: Peptide out-competition of phosphorylated substrates binding to Cdc4-Skp1; design: species or system yeast; settings: peptide 3, 17, 68 μM in FIG. 6f
T1 construct: made in house; host or cells: insect cells (baculovirus)
Description: (§1) SCF complexes were purified from SF9 cells infected with recombinant baculoviruses and used in binding assays and ubiquitination reactions essentially as described (7). Gst-Skp1 expressed in BL21 codon plus cells (Stratagene) then purified on glutathione resin was used to capture full Cdc4 from insect cell lysates. Truncated forms of Cdc4 were enriched prior to Gst-Skp1 capture by affinity purification of hexahistidine fusion proteins on a metal chelate column. The Skp1-Cdc4 complexes were released from the Gst moiety by cleavage with TEV protease and further purified by size exclusion chromatography on a Superdex S75 or S200 column. Biotin labeled […]p[…] (SEQ ID NO. 1), […] (SEQ ID NO. 12), and APPLSQEpTFSDLWK (SEQ ID NO. 13) were synthesized by addition of d-biotin (Sigma) with an Fmoc-e-aminocaproic acid (Bachem) spacer to carboxy-terminal peptides. […] Streptavidin-agarose beads (Sigma) were incubated in the presence of biotinylated peptide for 90 min. at 4° C. Beads were washed 3 times and then incubated with lysates from Cdc4 expressing baculovirus infected Sf9 cells. Beads were washed 4 times, after which SDS-PAGE gel loading buffer was added and the beads were boiled for 5 min. Proteins were separated by SDS-PAGE and visualized by silver stain. Peptide out-competition of phosphorylated substrates was carried out with immunopurified Skp1^FLAG-Cdc4 from insect cells, which were incubated with phosphopeptides prior to addition of phospho-Sic1 or phospho-Cyclin E-Cdk2. For kinase inhibition assays, purified recombinant Clb5-Cdc28 complex (30 ng) was incubated with mutant forms of Sic1 (40 ng) and histone H1 (HH1, 2 μg) for 1 h on ice prior to addition of [^32P]-γ-ATP and incubation at 25° C. for 30 min. Samples were separated by SDS-PAGE and visualized by autoradiography.

[2] = target: T2, SCFcdc4 (Saccharomyces cerevisiae, UniProt P07834); experiment: In vitro ubiquitination of substrates by SCFcdc4 in presence of peptide; format: biochemical, yeast; settings: excess peptide
T2 construct: made in house; host or cells: SF9 cells infected with recombinant baculoviruses
Description: as §1, with “Peptide out-competition of phosphorylated substrates was carried out with immunopurified Skp1^FLAG-Cdc4 from insect cells, which were incubated with phosphopeptides prior to addition of phospho-Sic1 or phospho-Cyclin E-Cdk2. For kinase inhibition assays, purified recombinant Clb5-Cdc28 complex (30 ng) was incubated with mutant forms of Sic1 (40 ng) and histone H1 (HH1, 2 μg) for 1 h on ice prior to addition of [^32P]-γ-ATP and incubation at 25° C. for 30 min. Samples were separated by SDS-PAGE and visualized by autoradiography.” left out

[3] = target: T3, Cdc4 (Saccharomyces cerevisiae, UniProt P07834); experiment: Capture of Cdc4 from baculovirus-infected insect cell lysates by biotinylated peptide; format: binding, yeast; design: made in house; host or cells: Sf9 insect cells infected with recombinant baculovirus (crude lysate); settings: insect cells infected with Cdc4 baculovirus
Description: as §1
Target sequence in this assay (P07834 whole entry): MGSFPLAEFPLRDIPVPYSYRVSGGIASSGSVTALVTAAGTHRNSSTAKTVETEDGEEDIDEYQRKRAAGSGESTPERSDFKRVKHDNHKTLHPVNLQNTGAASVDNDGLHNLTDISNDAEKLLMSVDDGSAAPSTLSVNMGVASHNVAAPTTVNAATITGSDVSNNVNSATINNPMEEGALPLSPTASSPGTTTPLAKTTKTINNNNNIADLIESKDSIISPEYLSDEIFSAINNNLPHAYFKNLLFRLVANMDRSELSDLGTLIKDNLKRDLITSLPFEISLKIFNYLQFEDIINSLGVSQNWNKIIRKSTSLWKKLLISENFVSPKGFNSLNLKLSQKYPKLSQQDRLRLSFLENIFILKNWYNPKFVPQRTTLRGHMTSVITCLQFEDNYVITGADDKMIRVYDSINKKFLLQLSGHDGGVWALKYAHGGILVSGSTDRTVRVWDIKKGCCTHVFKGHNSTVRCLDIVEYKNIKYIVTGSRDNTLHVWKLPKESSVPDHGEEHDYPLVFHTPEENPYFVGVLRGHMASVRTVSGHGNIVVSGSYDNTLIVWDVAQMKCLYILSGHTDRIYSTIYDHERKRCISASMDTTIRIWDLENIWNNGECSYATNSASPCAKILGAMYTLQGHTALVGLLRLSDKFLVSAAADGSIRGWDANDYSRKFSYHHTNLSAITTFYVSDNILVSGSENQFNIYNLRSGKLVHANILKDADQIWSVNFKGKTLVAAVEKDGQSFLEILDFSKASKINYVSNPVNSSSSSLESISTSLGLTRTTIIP

[4] = target: T3, Cdc4; experiment: Fluorescence polarization equilibrium binding of peptides to Cdc4; design: made in house; host or cells: Cdc4: baculovirus-infected insect (Sf9) cells; Gst-Skp1: E. coli BL21 codon plus; species or system yeast; settings: Hill plot of peptide binding to Cdc4
Protocol: Equilibrium binding constant determination was carried out using fluorescence polarization on a Beacon 2000 Fluorescence Polarization System (Pan Vera, Wis.) equipped with a 100 μL sample chamber. Fluorescein-labeled probes were prepared through the reaction of carboxyterminal-peptides with 5-(and-6)-carboxyfluorescein succinimidyl ester (Molecular Probes), purified by reverse-phase HPLC, and confirmed by mass spectrometry. Binding studies were conducted with 5 nM fluorescein-labeled probe dissolved in PBS containing 100 μg/ml BSA and 1 mM dithiothreitol. Reaction mixtures were allowed to equilibrate for 10 minutes at room temperature prior to each measurement. All fluorescence polarization measurements were conducted at 22° C.
Target sequence in this assay (P07834 whole entry): as above
Target sequence in this assay (P52286 whole entry partner): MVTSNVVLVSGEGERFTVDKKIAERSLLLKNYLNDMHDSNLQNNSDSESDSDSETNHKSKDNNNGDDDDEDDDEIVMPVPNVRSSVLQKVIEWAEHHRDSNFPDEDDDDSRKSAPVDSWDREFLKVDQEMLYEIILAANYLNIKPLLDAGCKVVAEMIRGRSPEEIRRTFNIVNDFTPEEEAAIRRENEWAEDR

[5] = target: Cdc4 (yeast F-box protein, recombinant, expressed in baculovirus-infected insect cells) (yeast) (UniProt P07834); experiment: equilibrium binding
[6] = target: T4, Skp1-Cdc4 complex (yeast, UniProt P07834 1-779; P52286 1-194, limits assumed); experiment: fluorescence polarization, 5 nM fluorescein-labeled peptide, Cdc4/Skp1 titrated
T4 construct: Purified complex (Gst removed by TEV, size exclusion) for fluorescence polarization and SPOTS arrays; also called Cdc4/Skp1; cdc4/skp1 complex
Target sequence in this assay (P07834 whole entry, chain 1 of 2): as the sequence (P07834 whole entry) above
Target sequence in this assay (P52286 whole entry, chain 2 of 2): as the sequence (P52286 whole entry partner) above

[7] = target: T4, Skp1-Cdc4 complex; experiment: fluorescence polarization
Target sequence in this assay (P52286 whole entry, one chain of several): as the sequence (P52286 whole entry partner) above

[8] = target: Cdc4 (yeast F-box protein, recombinant, expressed in baculovirus-infected insect cells) (yeast) (UniProt P07834); experiment: equilibrium binding, fluorescence polarization
[9] = target: Cdc4 (yeast F-box protein, recombinant, expressed in baculovirus-infected insect cells) (yeast) (UniProt P07834); experiment: equilibrium binding (Table in FIG. 3)

T1 sequence (P07834 whole entry): as the sequence (P07834 whole entry) above
T1 sequence (P52286 whole entry partner): as the sequence (P52286 whole entry partner) above
Chain of Cdc4 (yeast F-box protein, recombinant, expressed in baculovirus-infected insect cells) (yeast) (P07834 whole entry): as the sequence (P07834 whole entry) above
T2 sequence (P07834 whole entry): as above
T2 sequence (P52286 whole entry partner): as the sequence (P52286 whole entry partner) above
T2 sequence (Q12018 whole entry partner): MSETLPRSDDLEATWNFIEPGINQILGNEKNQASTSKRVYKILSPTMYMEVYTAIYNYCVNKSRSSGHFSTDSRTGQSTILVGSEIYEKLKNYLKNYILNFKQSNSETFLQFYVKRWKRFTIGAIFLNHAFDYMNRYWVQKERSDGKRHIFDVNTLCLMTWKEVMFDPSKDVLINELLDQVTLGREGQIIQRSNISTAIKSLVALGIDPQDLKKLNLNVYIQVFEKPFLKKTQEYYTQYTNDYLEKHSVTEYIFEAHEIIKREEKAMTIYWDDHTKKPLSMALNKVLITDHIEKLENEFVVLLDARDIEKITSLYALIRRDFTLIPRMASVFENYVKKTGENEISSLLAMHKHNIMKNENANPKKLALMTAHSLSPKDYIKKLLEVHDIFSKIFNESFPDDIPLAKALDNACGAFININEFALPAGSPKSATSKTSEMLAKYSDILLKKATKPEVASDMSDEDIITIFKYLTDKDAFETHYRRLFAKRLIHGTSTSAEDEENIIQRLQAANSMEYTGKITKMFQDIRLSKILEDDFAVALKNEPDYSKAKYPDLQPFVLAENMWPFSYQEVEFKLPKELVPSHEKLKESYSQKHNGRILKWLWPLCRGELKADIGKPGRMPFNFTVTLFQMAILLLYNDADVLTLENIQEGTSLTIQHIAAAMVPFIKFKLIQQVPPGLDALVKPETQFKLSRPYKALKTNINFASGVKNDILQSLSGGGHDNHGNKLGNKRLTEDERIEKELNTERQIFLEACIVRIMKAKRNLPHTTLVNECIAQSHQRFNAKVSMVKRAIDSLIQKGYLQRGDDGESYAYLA

Molecule: CC(C)C[C@H](NC(=O)CNC(=O)[C@H](CO)NC(=O)[C@@H]1CCCN1C(=O)[C@H](CC(C)C)NC(=O)[C@@H]1CCCN1C(=O)[C@H](CO)NC(=O)[C@H](C)N)C(=O)N[C@@H](CC(C)C)C(=O)N[C@H](C(=O)N1CCC[C@H]1C(=O)N1CCC[C@H]1C(=O)N[C@@H](CCC(N)=O)C(=O)N[C@@H](CO)C(=O)NCC(=O)N[C@@H](CCCCN)C(=O)N[C@@H](CCCCN)C(=O)N[C@@H](CCC(N)=O)C(=O)N[C@@H](CO)C(=O)O)[C@@H](C)OP(=O)(O)O [CycE-19mer, ASPLPSGLLpTPPQSGKKQS] (HELM PEPTIDE1{A.S.P.L.P.S.G.L.L.[C[C@@H](OP(=O)(O)O)[C@H](N[*:1])C(=O)[*:2]].P.P.Q.S.G.K.K.Q.S}$$$$V2.0)
competition with substrates (Sic1, cyclin E1, Far1) for binding to Cdc4 ([1]; listed as CycE19-pT380): able to out-compete | competition with substrates (Sic1, cyclin E1, Far1) for binding to Cdc4 ([1]; listed as CycE^19-pT380): out-competes binding of Sic1 and cyclin E1 | competition with substrates (Sic1, cyclin E1, Far1) for binding to Cdc4 ([1]; listed as cycE19P): able to compete | competition with substrates (Sic1, cyclin E1, Far1) for binding to Cdc4 ([1]; listed as cycEpT): inhibits the interaction | competition with substrates (Sic1, cyclin E1, Far1) for binding to Cdc4 ([1]; listed as cyclin E phosphopeptide): competed | block of ubiquitination of SCFcdc4 substrates ([2]; listed as CycE19-pT380): able to out-compete | block of ubiquitination of SCFcdc4 substrates ([2]; listed as cycE19P): blocked | capture of Cdc4 from lysates by biotinylated peptide ([3]; listed as CycE19-pT380): able to capture Cdc4 | capture of Cdc4 from lysates by biotinylated peptide ([3]; listed as CycE^19-pT380): captures recombinant Cdc4 | capture of Cdc4 from lysates by biotinylated peptide ([3]; listed as cycE19P): capture of Cdc4 | capture of Cdc4 from lysates by biotinylated peptide ([3]; listed as cycEpT19mer): able to precipitate cdc4 | Hill coefficient [4]: 0.99

Kd [5]: 0.75 µM | Kd [6]: 0.9 µM
Molecule: Cdc 16 peptide LSKNLLpTPQEEWD

fold lower affinity (against the phosphothreonine peptide) [7]: 6 fold | fold lower affinity (against the phosphothreonine cyclin E peptide) [8]: 6 fold
Molecule: CycEpS-9mer GLLpSPPQSG (peptide)

Kd [9]: 0.675 µM | Kd [6]: 0.88 µM
Molecule: Gcn4-9mer FLPpTPVLED (peptide)
